Experiments:
[1] = system: rodent; settings: 6-OHDA rodent model of PD; cited from earlier work
[2] = system: mice; settings: mice treated with MPTP; cited from earlier work
[3] = target: T1, human mGlu4 receptor (Homo sapiens, UniProt Q14833); experiment: Ca2+ mobilization in vitro assay on recombinant human mGlu4 expressed in HEK293 cells; type: cell-based; settings: HEK-293 cells stably expressing human mGlu4; L-AP4 added at EC20; Fluo-4 fluorescence; read-out: EC50 (uM) mGlu4 PAM
T1 construct: expressed in transfected cells; host or cells: HEK-293 (monoclonal, stably transfected)
Experimental: Determination of EC50 Values Using a Ca2+ Mobilization In Vitro Assay on Recombinant Human mGlu4 Expressed in HEK293 Cells:
A monoclonal HEK-293 cell line stably transfected with a cDNA encoding for the human mGlu4 receptor was generated; for the work with mGlu4 Positive Allosteric Modulators (PAMs), a cell line with low receptor expression levels and low constitutive receptor activity was selected to allow the differentiation of agonistic versus PAM activity. Cells were cultured according to standard protocols (Freshney, 2000) in Dulbecco's Modified Eagle Medium with high glucose supplemented with 1 mM glutamine, 10% (vol/vol) heat-inactivated bovine calf serum, Penicillin/Streptomycin, 50 μg/ml hygromycin and 15 μg/ml blasticidin (all cell culture reagents and antibiotics from Invitrogen, Basel, Switzerland).
About 24 hrs before an experiment, 5×10^4 cells/well were seeded in poly-D-lysine coated, black/clear-bottomed 96-well plates. The cells were loaded with 2.5 μM Fluo-4 AM in loading buffer (1×HBSS, 20 mM HEPES) for 1 hr at 37° C. and washed five times with loading buffer. The cells were transferred into a Functional Drug Screening System 7000 (Hamamatsu, Paris, France), and 11 half logarithmic serial dilutions of test compound at 37° C. were added and the cells were incubated for 10-30 min. with on-line recording of fluorescence. Following this pre-incubation step, the agonist (2S)-2-amino-4-phosphonobutanoic acid (L-AP4) was added to the cells at a concentration corresponding to EC20 with on-line recording of fluorescence; in order to account for day-to-day variations in the responsiveness of cells, the EC20 of L-AP4 was determined immediately ahead of each experiment by recording of a full dose-response curve of L-AP4.
Responses were measured as peak increase in fluorescence minus basal (i.e. fluorescence without addition of L-AP4), normalized to the maximal stimulatory effect obtained with saturating concentrations of L-AP4. Graphs were plotted with the % maximal stimulatory using XLfit, a curve fitting program that iteratively plots the data using Levenburg Marquardt algorithm. The single site competition analysis equation used was y=A+((B−A)/(1+((x/C)D))), where y is the % maximal stimulatory effect, A is the minimum y, B is the maximum y, C is the EC50, x is the log 10 of the concentration of the competing compound and D is the slope of the curve (the Hill Coefficient). From these curves the EC50 (drug concentration at which 50% of the maximal receptor activation was achieved), the Hill coefficient as well as the maximal response in % of the maximal stimulatory effect obtained with saturating concentrations of L-AP4 were calculated (see Fig. 1).
A depression of the signal observed after addition of the EC20 concentration of L-AP4 was indicative of an inhibitory activity of the test compound.

[4] = system: mice; settings: reported by Addex 2010; cited from earlier work
[5] = system: mice; settings: reported by Addex 2010; cited from earlier work; remark: listed apart in the source
[6] = system: rats; settings: cited from earlier work

T1 sequence (Q14833 33-912): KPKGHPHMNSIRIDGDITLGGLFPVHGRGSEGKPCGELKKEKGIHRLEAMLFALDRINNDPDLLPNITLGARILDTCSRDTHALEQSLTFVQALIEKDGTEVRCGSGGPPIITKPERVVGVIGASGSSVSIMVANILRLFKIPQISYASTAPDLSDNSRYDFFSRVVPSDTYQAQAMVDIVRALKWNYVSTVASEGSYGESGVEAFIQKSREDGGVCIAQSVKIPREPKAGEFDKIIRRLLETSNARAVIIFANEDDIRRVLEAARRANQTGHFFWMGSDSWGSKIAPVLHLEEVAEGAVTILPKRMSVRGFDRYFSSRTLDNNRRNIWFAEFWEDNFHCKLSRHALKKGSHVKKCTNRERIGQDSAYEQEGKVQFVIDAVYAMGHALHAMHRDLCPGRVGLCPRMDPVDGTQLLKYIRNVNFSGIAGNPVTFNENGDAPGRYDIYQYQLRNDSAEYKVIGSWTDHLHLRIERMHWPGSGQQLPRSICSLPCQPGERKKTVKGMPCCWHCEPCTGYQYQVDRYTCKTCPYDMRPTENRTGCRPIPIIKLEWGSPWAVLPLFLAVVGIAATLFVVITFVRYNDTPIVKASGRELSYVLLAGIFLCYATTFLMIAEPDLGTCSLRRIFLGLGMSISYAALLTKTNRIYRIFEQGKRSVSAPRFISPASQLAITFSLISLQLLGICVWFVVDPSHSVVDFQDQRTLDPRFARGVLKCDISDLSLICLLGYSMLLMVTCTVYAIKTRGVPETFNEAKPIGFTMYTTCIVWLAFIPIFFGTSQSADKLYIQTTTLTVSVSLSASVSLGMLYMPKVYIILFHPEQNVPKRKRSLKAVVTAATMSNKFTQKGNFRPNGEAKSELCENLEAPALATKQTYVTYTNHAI

Compound	EC50 [3] [µM]	further results
N[C@@H](CCP(=O)(O)O)C(=O)O [L-AP4, (2S)-2-amino-4-phosphonobutanoic acid]		neuroprotection [1]: neuroprotective effects
O=C(Nc1ccccc1)C12CC1/C(=N\O)c1ccccc1O2 (single isomer, unassigned; (-)) [(−)-PHCCC]		nigrostriatal degeneration [2]: reduced nigrostriatal degeneration
O=C1N(c2c(F)cc(C#Cc3ccccc3)cc2F)c2ncc(-c3cc[nH]n3)n2C12CC2 [Example 27, 3-[2,6-Difluoro-4-(2-phenylethynyl)phenyl]-6-(1H-pyrazol-3-yl)-2,3-dihydrospiro[[1,3]diazolo[1,2-a]-imidazole-1,1′-cyclopropane]-2-one]	0.121	
O=C1N(c2c(F)cc(C#Cc3cccnc3)cc2F)c2ncc(-c3cccnc3)n2C12CC2 [Example 39, 1′-(2,6-difluoro-4-(pyridin-3-ylethynyl)phenyl)-5′-(pyridin-3-yl)spiro[cyclopropane-1,3′-imidazo[1,2-a]imidazol]-2′(1′H)-one]	0.566	
Cn1ccc(-c2cnc3n2C(C)(C)C(=O)N3c2c(F)cc(C#Cc3ccccc3)cc2Cl)n1 [Example 36, 1-(2-chloro-6-fluoro-4-(phenylethynyl)phenyl)-3,3-dimethyl-5-(1-methyl-1H-pyrazol-3-yl)-1H-imidazo[1,2-a]imidazol-2(3H)-one]	0.252	
O=C1CCN1c1cnc2n1C1(CC1)C(=O)N2c1c(F)cc(C#Cc2cccnc2)cc1F [Example 54, 7′-[2,6-difluoro-4-[2-(3-pyridyl)ethynyl]phenyl]-3′-(2-oxoazetidin-1-yl)spiro[cyclopropane-1,5′-imidazo[1,2-a]imidazole]-6′-one]	0.808	
O=C1N(c2c(F)cc(C#Cc3ccccc3)cc2F)c2ncc(C3(O)COC3)n2C12CC2 [Example 50, 7′-[2,6-difluoro-4-(2-phenylethynyl)phenyl]-3′-(3-hydroxyoxetan-3-yl)spiro[cyclopropane-1,5′-imidazo[1,2-a]imidazole]-6′-one]	0.322	
O=C1N(c2c(F)cc(C#Cc3cccnc3)cc2F)c2ncc(-c3cc[nH]n3)n2C12CC2 [Example 28, 7′-[2,6-difluoro-4-[2-(3-pyridyl)ethynyl]phenyl]-3′-(1H-pyrazol-3-yl)spiro[cyclopropane-1,5′-imidazo[1,2-a]imidazole]-6′-one]	0.135	
CC1(C)C(=O)N(c2c(F)cc(C#Cc3ccccc3)cc2Cl)c2ncc(I)n21 [Example 10, 1-(2-chloro-6-fluoro-4-(phenylethynyl)phenyl)-5-iodo-3,3-dimethyl-1H-imidazo[1,2-a]imidazol-2(3H)-one]	0.371	
Cn1nccc1-c1cnc2n1C1(CC1)C(=O)N2c1c(F)cc(C#Cc2ccccc2)cc1F [Example 44, 7′-[2,6-difluoro-4-(2-phenylethynyl)phenyl]-3′-(2-methylpyrazol-3-yl)spiro[cyclopropane-1,5′-imidazo[1,2-a]imidazole]-6′-one]	0.422	
CC(C)(C)c1cnn(-c2cc(F)c(N3C(=O)C4(CC4)n4c(C5(O)COC5)cnc43)c(F)c2)c1 [Example 52, 7′-[4-(4-tert-butylpyrazol-1-yl)-2,6-difluoro-phenyl]-3′-(3-hydroxyoxetan-3-yl)spiro[cyclopropane-1,5′-imidazo[1,2-a]imidazole]-6′-one]	0.905	
O=C(Nc1cc(F)c(N2C(=O)C3(CC3)n3c(CO)cnc32)c(F)c1)c1ccccn1 [Example 56, N-[3,5-difluoro-4-[3′-(hydroxymethyl)-6′-oxo-spiro[cyclopropane-1,5′-imidazo[1,2-a]imidazole]-7′-yl]phenyl]pyridine-2-carboxamide]	0.834	
Cc1ccnc(Nc2nc(-c3cn[nH]c3)c(C)s2)n1 [ADX88178]		activity in marble burying test [4]: active; activity in EPM [5]: active; profile in rat EPM test ([6]; rat, after oral dosing): anxiolytic-like profile; activity in EPM ([6]; rats, reported by Addex 2010): active
CC(F)(F)c1ccc(-c2cc(F)c(N3C(=O)C4(CC4)n4c(-c5cc[nH]n5)cnc43)c(F)c2)cc1 [Example 40, 1′-(4′-(1,1-difluoroethyl)-3,5-difluoro-[1,1′-biphenyl]-4-yl)-5′-(1H-pyrazol-3-yl)spiro[cyclopropane-1,3′-imidazo[1,2-a]imidazol]-2′(1′H)-one]	0.206	

Reference: patent US11345708B2, “Substituted imidazo[1,2-a]imidazoles as modulators of metabotropic glutamate receptor 4 activity” (Hoffmann-La Roche Inc., priority 2017, dated 2022)
